Experimental data published in US20090098219A1, “Cosmetic/pharmaceutical compositions comprising retinoids and anti-irritants and treatment of keratinization disorders therewith” (GALDERMA RESEARCH & DEVELOPMENT, priority 2005, published 2009).
“Also recorded” adds a separate entry of the source.

Tests used:
ear of the BALB/c mouse = experiment: Tolerance study: anti-irritant in preventive treatment before topical Differin gel, ear thickness (edema); format: in vivo; conditions: for effect of the anti-irritant on the irritation caused by Differin gel (in words): anti-irritant applied before Differin gel; for % AUC inhibition vs Differin (reduction of edema/irritation due to Differin gel): anti-irritant solution followed by Differin gel, D1-D6, AUC D2-D19
Description: The anti-irritants used are formulated, unless otherwise indicated, in an ethanol/water (50:50) vehicle at the concentrations shown in the table below.
The goal of the present study is to compare the irritant power of a reference gel, comprising 0.1% adapalene, when this treatment is preceded or not preceded by treatment with an anti-irritant.
The treatment consists of a daily topical application (20 μl) of anti-irritant, formulated in an aqueous/alcoholic vehicle (50% ethanol and 50% water by volume), on the internal face of the right ear of BALB/c mice divided into 15 groups (female mice approximately 9 weeks old), followed by a topical application (20 μl) of Differin® gel (reference gel comprising 0.1% adapalene) at the rate of one application of each formulation per day for 6 days.
Evaluation is carried out by measurements of the thickness of the ear by means of the Oditest and by clinical observation of the animals from the 2nd to 19th day.

[1] = tested on: comedones on the back of the Rhino mouse; experiment: Comedolytic activity of Differin gel alone or preceded by an anti-irritant on the Rhino mouse; format: in vivo; conditions: split treatment, 18 days
From the text: The goal of the present study is to compare the comedolytic activity of Differin® gel (reference gel comprising 0.1% adapalene) whether this treatment is preceded or not preceded by a treatment with an anti-irritant.

Compound	effect of the anti-irritant on the irritation caused by Differin gel (in words) (ear of the BALB/c mouse)	effect on the comedolytic activity of Differin gel (in words) [1]	% AUC inhibition vs Differin (reduction of edema/irritation due to Differin gel) (ear of the BALB/c mouse) [%]
O=C(O)CN(CCN(CC(=O)O)CC(=O)O)CC(=O)O [EDTA]	effective in reducing the irritation	–	–
NC(=O)NC1NC(=O)NC1=O (stereo not drawn) [allantoin, Allantoin]	effective in reducing the irritation	does not reduce the comedolytic activity	–
CC1(C)[C@@H](O)CC[C@]2(C)[C@H]3C(=O)C=C4[C@@H]5C[C@@](C)(C(=O)O)CC[C@]5(C)CC[C@@]4(C)[C@]3(C)CC[C@@H]12 [enoxolone, Enoxolone, reference compound]	virtually no effect; also recorded: do not have an effect	–	–
O.O.O.O.O.O.[Cl-].[Cl-].[Sr+2] [strontium chloride hexahydrate, Strontium chloride hexahydrate]	effective in reducing the irritation	–	–
O=[N+]([O-])[O-].O=[N+]([O-])[O-].[Sr+2] [strontium nitrate, Strontium nitrate]	effective in reducing the irritation	does not reduce the comedolytic activity	–
O=S(=O)([O-])[O-].[Zn+2] [zinc sulfate, Zinc sulfate]	a reduction in the irritation; also recorded: effective in reducing the irritation	–	25
Potassium disodium salt of β-glycyrrhizic acid [reference compound]	virtually no effect; also recorded: do not have an effect	–	–
Sodium choleate	slightly reduces; also recorded: effective in reducing the irritation	–	9
